Several values for one entry are separate records, joined by “and”; a condition that tells them apart may be missing. Equal entries are not always repeated.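 Cells were grown in 96-well plates and exposed to each compound for 48 hours at five concentrations; endpoints were interpolated linearly between bracketing concentrations, or set to the highest concentration if not reached. GI50 = concentration required for 50% inhibition of growth.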 Activity calls are given as the source filed them. Cut-off read from the data, not from the text of the source: active = GI50 up to about 1.1 µM and inactive = higher. Bounds are passed on as bounds.

Common to all, as to test: inhibition of tumour cell growth, NCI panel, 48 h
Test [1] concerns 786-0.
The subject of test [2] is A498.
For test [3], the system named is BT-549.
Test [4] deals with COLO 205.
For test [5], the system named is HCT-116.
The test system of test [6] is HOP-62.
Test [7] has as its system Hs-578T.
The test system of test [8] is LOX IMVI.
Test [9] deals with M14.
In test [10] the test system is MDA-MB-435.
For test [11], the system named is OVCAR-5.
In test [12] the test system is RXF 393.
The subject of test [13] is SK-OV-3.
In test [14] the test system is T47D.
The test system of test [15] is U-251.
The test system of test [16] is CAKI-1.
Test [17] relates to IGROV-1.
The subject of test [18] is Malme-3M.
The test system of test [19] is HL-60.
The subject of test [20] is HT-29.

With `O=C(O)CCC(/N=C(\C(=N\C(CCC(=O)O)C(=O)O)c1ccccc1)c1ccccc1)C(=O)O` (centres undefined), the GI50 in test [1] is > 100 µM (inactive); in test [2], > 100 µM (inactive); in test [3] it was 90.2 µM (inactive); in test [4] it was > 100 µM (inactive); in test [5], > 100 µM (inactive); in test [6], > 100 µM (inactive). Further, the GI50 in test [7], in [8], in test [9], in test [10], in test [11] and in test [12] was > 100 µM (inactive) each time. Also, the GI50 in test [13], in [14] and in test [15] was > 100 µM (inactive) throughout.
As to `Cc1ccc(S(=O)(=O)SC/C=C\CSS(=O)(=O)c2ccc(C)cc2)cc1`, the GI50 in [1] was 12.2 µM (inactive) and 17.9 µM (inactive); in [2], 57.1 µM (inactive) and 49.4 µM (inactive); in test [3], 9.59 µM (inactive); in [16] it was 21.4 µM (inactive) and 18.2 µM (inactive); in test [6], 49.2 µM (inactive) and 35.9 µM (inactive); in [7], 67 µM (inactive). Besides, the GI50 in test [17] was 39.2 µM (inactive) and 28.1 µM (inactive); in [9], 13.8 µM (inactive) and 17.4 µM (inactive); in [10], 5.82 µM (inactive); in test [18], 34.7 µM (inactive) and 20.2 µM (inactive); in test [12] it was 18 µM (inactive) and 22.8 µM (inactive); in [13], 43.5 µM (inactive) and 55.8 µM (inactive). In addition, the GI50 was 39.3 µM (inactive) in test [14]; 15.8 µM (inactive) and 15.9 µM (inactive) in test [15].
On to `C=C1CC(C)(COc2ccc3c(C)cc(=O)oc3c2)OC1=O` (centres undefined), for which the GI50 in test [1] was 1.48 µM (inactive); in [3], 2.31 µM (inactive); in test [16], 1.3 µM (inactive); in [4], 0.951 µM (active); in [5], 0.778 µM (active); in test [19], 0.232 µM (active). The GI50 in test [6] is 13.8 µM (inactive); in test [20] it was 1.03 µM (active); in [7], 3.56 µM (inactive); in [17] it was 2.47 µM (inactive); in test [8], 1.59 µM (inactive); in [9] it was 1.34 µM (inactive). Moreover, the GI50 in test [10] is 1.28 µM (inactive); in test [18], 1.29 µM (inactive); in test [11], 4.22 µM (inactive); in test [13] it was 3.73 µM (inactive); in test [14], 1.74 µM (inactive); in test [15], 10.9 µM (inactive).
Consider `O=C(/C=C/c1ccc2c(c1)OCO2)c1ccccc(=O)c1O`, for which the GI50 in test [1] is 8.32 µM (inactive); in [2] it was 29.9 µM (inactive); in test [3], 15.7 µM (inactive); in test [16], 5.98 µM (inactive); in test [4], 4.94 µM (inactive); in test [5], 6.05 µM (inactive). Besides, the GI50 in [6] is 20.9 µM (inactive); in test [20] it was 9.51 µM (inactive); in test [7] it was 7.8 µM (inactive); in test [17], 5.77 µM (inactive); in test [8], 19.9 µM (inactive); in test [10], 13.9 µM (inactive). Besides, the GI50 in test [18] was 23.3 µM (inactive); in test [14], 20.9 µM (inactive); in test [15], 15.9 µM (inactive).
Take `O=c1[nH]c(=O)n(C2CC(O)C(CO)O2)cc1OCc1ccccc1` (centres undefined): the GI50 in test [1], in test [3], in test [16], in test [4], in test [5] and in [19] was > 100 µM (inactive) in each case. In addition, the GI50 in test [6], in test [20], in test [7], in [17], in test [8] and in test [9] was > 100 µM (inactive) throughout. The GI50 in test [10], in test [18], in [11], in test [12], in test [13] and in [14] was > 100 µM (inactive) throughout. Besides, the GI50 in [15] is > 100 µM (inactive).
Turning to `O=C1CCCc2c1c1c(n2Cc2ccccc2)-c2ccccc2C1=O`, the GI50 in test [1] was 21.6 µM (inactive); in test [3], 22.8 µM (inactive); in [16], 21.1 µM (inactive); in test [4] it was 17.9 µM (inactive); in test [5], 14.4 µM (inactive); in test [19] it was 23.9 µM (inactive). Further, the GI50 is 25.5 µM (inactive) in test [6]; 31.1 µM (inactive) in test [20]; 28.7 µM (inactive) in test [7]; 18.9 µM (inactive) in test [17]; 17.9 µM (inactive) in test [8]; 21.3 µM (inactive) in test [9]. The GI50 in test [10] is 18.4 µM (inactive); in [18] it was 15.3 µM (inactive); in [11], 32.1 µM (inactive); in test [12], 29.9 µM (inactive); in test [13], 18.8 µM (inactive); in test [14], 5.93 µM (inactive). For the same compound, the GI50 in test [15] was 20.7 µM (inactive).
In the case of `Cc1ccc(S(=O)(=O)N2CCN(S(=O)(=O)c3ccc(C)cc3)Cc3ccccc3C2)cc1`, the GI50 in [1] is 35.2 µM (inactive); in [3] it was 64.9 µM (inactive); in [16], 39.4 µM (inactive); in [4], > 100 µM (inactive); in test [5], > 100 µM (inactive); in test [19], > 100 µM (inactive). Besides, the GI50 in test [6] was 20.5 µM (inactive); in test [20], > 100 µM (inactive); in test [7], 24.5 µM (inactive); in [17], > 100 µM (inactive); in test [8] it was > 100 µM (inactive); in [9], 33 µM (inactive). Also, the GI50 in test [10] is 34.3 µM (inactive); in test [18], > 100 µM (inactive); in test [11], > 10 µM (inactive); in [14], 28.2 µM (inactive).
In the case of `O=C(NNc1ccnc2cc(Cl)ccc12)/C(=C\c1ccccc1Cl)NC(=O)c1ccccc1`, the GI50 in test [1] is 41.6 µM (inactive); in test [3] it was 33.8 µM (inactive); in test [16], 86.3 µM (inactive); in test [4], 25.2 µM (inactive); in test [5], 42.7 µM (inactive); in test [19], 23.4 µM (inactive). The GI50 was 19.2 µM (inactive) in test [6]; 47.8 µM (inactive) in test [20]; 32.5 µM (inactive) in test [7]; 12.5 µM (inactive) in test [17]; 17.4 µM (inactive) in test [8]; 31.3 µM (inactive) in test [9]. Further, the GI50 in test [10] is 38.6 µM (inactive); in test [18], 52.6 µM (inactive); in test [11], 39.7 µM (inactive); in test [12] it was 27.2 µM (inactive); in test [13], > 100 µM (inactive); in test [14] it was 32.2 µM (inactive). The GI50 in [15] was 17.3 µM (inactive).
With `COC(CNC(=O)CNC(=O)c1ccc(C(F)(F)F)cc1)OC`, the GI50 in [1], in test [3], in test [16], in test [4], in test [5] and in test [19] was > 100 µM (inactive) each time. The GI50 in test [20], in [7], in [17], in test [9], in test [10] and in test [18] was > 100 µM (inactive) throughout. Also, the GI50 in [11], in [12], in test [13], in test [14] and in [15] was > 100 µM (inactive) in each case.
`Cc1cc(O)c(C(c2ccncc2)c2c(O)cc(C)[nH]c2=O)c(=O)[nH]1`: the GI50 in test [1] is > 100 µM (inactive); in test [3] it was > 100 µM (inactive); in [16], 5.12 µM (inactive); in test [4] it was > 100 µM (inactive); in test [5], > 100 µM (inactive); in test [19], > 100 µM (inactive). The GI50 in test [6], in [20], in test [7], in [17], in [8] and in [9] was > 100 µM (inactive) throughout. Further, the GI50 in test [10], in test [18], in test [11], in test [12], in test [13] and in test [14] was > 100 µM (inactive) in each case. Also, in test [15], the GI50 was > 100 µM (inactive).
As for `Cc1nc2cc(F)c(F)cc2[nH]c1=O`, the GI50 in test [1], in test [3], in [16], in test [4], in [5] and in [19] was > 100 µM (inactive) in each case. Also, the GI50 was > 100 µM (inactive) in test [6]; > 100 µM (inactive) in [20]; 77.6 µM (inactive) in [7]; > 100 µM (inactive) in [8]; > 100 µM (inactive) in [9]; > 100 µM (inactive) in [10]. Further, the GI50 in test [18], in test [11], in test [12], in [13], in test [14] and in test [15] was > 100 µM (inactive) in each case.

The values above are taken from ChEMBL document CHEMBL1201862, “PubChem BioAssay data set” (2004).
